We go through 1 molecule from US12560591B2, “Methods of treatment with CD8 T cell-mediated immune therapy” (Providence Health & Services—Oregon, priority 2019, dated 2026).

One assay has as its system CT26 tumors. As to the kind of experiment: CT26 tumor model: ALK5 inhibitor with chemoradiation (RT+5FU), tumor growth and survival. Type of assay: in vivo, mouse. The conditions noted are these: CT26 tumor-bearing mice, LY added to RT+5FU, FIG. 1B. As to the method: (§1) FIGS. 1A-1D are a series of panels showing that the TGFβR1 antagonist LY2157299 enhances chemo-radiation efficacy dependent on CD8α^+ cells in CT26 tumors. FIG. 1A is a treatment schema in the CT26 tumor model. Six to eight week old BALB/c mice were implanted subcutaneously in the left flank with 2×10^5 CT26 tumor cells. Seven days following implant, animals were randomized based on tumor size, and vehicle control or LY2157299 compound were administered by oral gavage twice daily every 12 hours at 150 mg/kg for 7 consecutive days. At day 14, some mice received five consecutive radiation treatments of 5 Gy targeted to tumor tissue along with 25 mg/kg injections of 5-fluorouracil (5FU) chemotherapy administered intraperitoneally on days 14, 16, and 18. LY treatment groups resumed BID oral dosing from days 21-27. Mean tumor growth (i) and survival (ii) were assessed three times per week up to 100 days or death (FIG. 1B). […] Arrows identify pSMAD2^+CD8^+ cells in vehicle mice. […] NS=not significant, *=p<0.05, **=p<0.01, ***=p<0.001.
FIGS. 6A-6D are a series of panels showing generation of tumor-specific immune memory following tumor eradication with TGFβ inhibition with chemoradiation. […] The number of mice cured over the total number of mice in each group is indicated in the top right corner. One representative experiment is shown reflective of two independent experiments. Mice who eradicated their tumors were rechallenged with CT26 and 4T1 tumors. CT26 tumor cells were rechallenged on the opposite flank as from the original cured tumor. In FIG. 6D, 4T1 and CT26 tumor establishment and growth was followed for up to 60 days post re-challenge. The number of tumors rejected per total mice rechallenged in each tumor type is indicated in the top right portion of the graph. ***=p<0.001
Animal studies and cell culture: C57BL/6, BALB/c, CD8Cre, Lyz2Cre, and Foxp3-eGFP-CreERT2 mice were purchased from the Jackson Laboratories (Bar Harbor, Maine). ALK5flox/flox mice were a generous gift from Andrew Weinberg (Providence Cancer Center). All transgenic mice were on C57BL/6 background. CT26, MC38, 4T1 and MCA205-OVA tumor cells were grown in DMEM medium supplemented with 10% heat-inactivated fetal bovine serum and 1% penicillin-streptomycin to 60-90% confluence prior to tumor implantation. All cells were washed 2× with 1×PBS and implanted subcutaneously in a 100 μl volume of 1×PBS in the lower flanks. 1×10^5 MC38 cells, 2×10^5 CT26 cells, 5×10^4 4 T1 cells, and 5×10^6 MCA205-OVA cells were used for tumor induction. Tumors were measured 3×/week until they reached the survival end-point of 144 mm^2. […] Following single cell preparation, cells were washed and resuspended in FACS buffer (1×PBS, 1% BSA, 2 mM EDTA) and counted prior to FACS staining using a Guava EasyCyte cytometer (Millipore). […]

Assay [1] deals with Smad2 (ALK5 signaling) in tumor tissue. As to the kind of experiment: phospho-SMAD2 / CD8a co-immunofluorescence of tumor sections at day 14. The class given is in vivo, mouse. The conditions noted are these: day 14, one day post-LY treatment, specifically in CD8α^+ cells, FIG. 1C. As to the method:
as §1
Immunofluorescence: Human rectal cancer biopsies were fixed in 10% NBF overnight and mouse tumors were fixed in zinc fixative overnight prior to tissue processing and paraffin embedding followed by sectioning cut at 5 microns for immunofluorescent staining. […]
Production of TGFβ by cells within the tumor was evaluated.

As to `Cc1cccc(-c2nn3c(c2-c2ccnc4ccc(C(N)=O)cc24)CCC3)n1` [LY2157299], the median survival in the assay on CT26 tumors (150 mg/kg BID oral, p<0.01) was 45 days. Besides, in the assay on CT26 tumors, the tumor growth result is “significantly slowed tumor growth”. Further, in assay [1], the “phosphorylation and nuclear translocation of Smad2 in tumor sections” value was “reduced phosphorylation and nuclear translocation”.
